Test results: patent US5849736A, “Isoxazoline and isoxazole fibrinogen receptor antagonists” (The DuPont Merck Pharmaceutical Company, priority 1995, dated 1998)
Structures can show the parent of a compound that is named as a salt.

system: platelet aggregation in human platelet rich plasma (PRP); test: Platelet Aggregation Assay (platelet rich plasma, with or without esterase pretreatment); format: cell-based; settings: Platelet, preincubated with 100 IU/mL porcine liver esterase 2 hours at 37° C., 100 μM ADP, read-out: Platelet Aggregation Assay IC50 (with esterase)
Protocol: Venous blood was obtained from the arm of a healthy human donor who was drug-free and aspirin-free for at least two weeks prior to blood collection. Blood was collected into 10 mL citrated Vacutainer tubes. The blood was centrifuged for 15 minutes at 150×g at room temperature, and platelet-rich plasma (PRP) was removed. The remaining blood was centrifuged for 15 minutes at 1500×g at room temperature, and platelet-poor plasma (PPP) was removed. Samples were assayed on a aggregometer (PAP-4 Platelet Aggregation Profiler), using PPP as the blank (100% transmittance). 200 μL of PRP was added to each micro test tube, and transmittance was set to 0%. 20 μL of various agonists (ADP, collagen, arachidonate, epinephrine, thrombin) were added to each tube, and the aggregation profiles were plotted (% transmittance versus time). The results are expressed as % inhibition of agonist-induced platelet aggregation. For the IC50 evaluation, the test compounds were added at various concentrations prior to the activation of the platelets.
Ester prodrugs were preincubated (10^-3 M F.C.) with 100 IU/mL Porcine liver esterase (Sigma Chemical Co., St. Louis, Mo., #E-3128) for 2 hours at 37° C. Aliquots are then diluted in 0.1M Tris, pH 7.4, to the desired concentrations. Aliquots of 20 μl of the esterase pretreated prodrugs are added to 200 μl of human platelet rich plasma. Samples were placed in platelet profiler (aggregometer) for 8 minutes at 37° C., followed by the addition of 100 μM Adenosine Diphosphate, (Sigma Chemical Co., St. Louis, Mo., #A-6521), to induce platelet aggregation. Platelet aggregation was allowed to proceed for 5 minutes. Percent inhibition is calculated using percent aggregation in the presence of the test compound divided by percent aggregation of control, times 100. This value is subtracted from 100, yielding percent inhibition. Calculation of IC50 is performed on a Texas Instruments TI59 with an IC50 program.
Table A below sets forth the antiplatelet activity of representative compounds of the present invention. The indicated compounds were tested for their ability to inhibit platelet aggregation (using platelet rich plasma (PRP)). The IC50 value (the concentration of antagonist which inhibits platelet aggregation by 50% relative to a control lacking the antagonist) is shown. In Table 5 the IC50 values are expressed as: +++=IC50 of <10 μM; ++=IC50 of 10-50 μM; +=IC50 of 50-100 μM (μM=micromolar).

Row | Compound | IC50
1 | N=C(N)NCCC1=NOC(CCC(=O)NCC(NC(=O)OCc2ccccc2)C(=O)O)C1 (stereo not drawn) [Example 2400] | < 10 µM
2 | N=C(N)NCCC1=NOC(C(=O)NCC(NC(=O)OCc2ccccc2)C(=O)O)C1 (stereo not drawn) [Example 2405] | < 10 µM
3 | N=C(N)NCC1CC(CCC(=O)NCC(NC(=O)OCc2ccccc2)C(=O)O)=NO1 (stereo not drawn) [Example 2281] | < 10 µM
4 | COC(=O)CC(NC(=O)CC1CC(c2ccc(C(=N)N)cc2)=NO1)C(=O)N1CCSC1 (stereo not drawn) [Example 469] | < 10 µM
5 | CCS(=O)(=O)NC(CNC(=O)CC1CC(c2ccc(C(=N)N)cc2)=NO1)C(=O)OC (stereo not drawn) [Example 324] | < 10 µM
6 | COC(=O)[C@H](CNC(=O)CC1CC(c2ccc(C(=N)N)nc2)=NO1)NS(=O)(=O)c1cccc(C)c1 (stereo partly drawn) [Example 516, Methyl N^2-(m-toluenesulfonyl)-N^3-[3-(2-amidinopyrid-5-yl)isoxazolin-5-ylacetyl]-S-2,3-diaminopropionate hydrochloric acid salt] | < 10 µM
7 | COC(=O)C(CNC(=O)CC1CC(c2ccc(C(=N)N)cc2)=NO1)NS(=O)(=O)c1ccc(F)cc1 (stereo not drawn) [Example 483] | < 10 µM
8 | COC(=O)C(CNC(=O)CC1CC(c2ccc(C(=N)N)cc2)=NO1)NS(=O)(=O)c1ccc(S(=O)(=O)c2ccccc2)s1 (stereo not drawn) [Example 2118] | < 10 µM
9 | CCCCC(CC(=O)OCC)NC(=O)CC1CC(c2ccc(C(=N)N)cc2)=NO1 (stereo not drawn) [Example 345] | < 10 µM
10 | N=C(N)NCCCCC1CC(C(=O)NCC(NC(=O)OCc2ccccc2)C(=O)O)=NO1 (stereo not drawn) [Example 1321] | < 10 µM
11 | COC(=O)CC(NC(=O)CC1CC(c2ccc(C(=N)N)cc2)=NO1)c1ccccc1 (stereo not drawn) [Example 89] | < 10 µM
12 | Cc1nc(C)c(S(=O)(=O)NC(CNC(=O)CC2CC(c3ccc(C(=N)N)cc3)=NO2)C(=O)O)s1 (stereo not drawn) [Example 644] | < 10 µM
13 | Cc1cccc(S(=O)(=O)NC(CNC(=O)Cc2cc(-c3ccc(C(=N)N)cc3)no2)C(=O)O)c1 (stereo not drawn) [Example 798] | < 10 µM
14 | COC(=O)C(CNC(=O)CC1CC(c2ccc(C(=N)N)cc2)=NO1)NS(=O)(=O)c1ccc(OC)cc1 (stereo not drawn) [Example 484] | < 10 µM
15 | COC(=O)C(CNC(=O)CC1CC(c2ccc(C(=N)N)cc2)=NO1)NS(=O)(=O)c1ccc(I)cc1 (stereo not drawn) [Example 474] | < 10 µM
16 | COC(=O)C(CNC(=O)CC1CC(c2ccc(C(=N)N)cc2)=NO1)NS(=O)(=O)c1ccc(-c2ccccc2)cc1 (stereo not drawn) [Example 546] | < 10 µM
17 | COC(=O)CC(CN1CCCC1)NC(=O)CC1CC(c2ccc(C(=N)N)cc2)=NO1 (stereo not drawn) [Example 612] | < 10 µM
18 | COC(=O)C(CNC(=O)CC1CC(c2ccc(C(=N)N)cc2)=NO1)NS(=O)(=O)c1ccc(-c2ccon2)s1 (stereo not drawn) [Example 551] | < 10 µM
19 | COC(=O)CC(CSc1ccccc1)NC(=O)CC1CC(c2ccc(C(=N)N)cc2)=NO1 (racemic) [Example 350, Methyl 3(R,S)-N-(R,S)-{5-[3-(4-amidinophenyl)isoxazolin-5-ylacetyl]amino}-4-(phenylthio)butanoate hydrochloric acid salt] | < 10 µM
20 | COC(=O)C(CNC(=O)CC1CC(c2ccc(C(=N)N)cc2)=NO1)NS(=O)(=O)c1cccs1 (stereo not drawn) [Example 472] | < 10 µM
21 | COC(=O)C(CNC(=O)CC1CC(c2ccc(C(=N)N)cc2)=NO1)NS(=O)(=O)c1cccc(C)c1 (stereo not drawn) [Example 473] | < 10 µM

Row | Compound | IC50
22 | CCCC[C@H](CC(=O)OC)NC(=O)CC1CC(c2ccc(C(=N)N)cc2)=NO1 (stereo partly drawn) [Example 344, Methyl 3(R)-{5(R,S)-N-[3-(4-Amidinophenyl)isoxazolin-5-ylacetyl]amino}heptanoate] | < 10 µM
23 | CCCCOC(=O)NC(CNC(=O)CC1CC(CCC2CCNCC2)=NO1)C(=O)OC (stereo not drawn) [Example 451] | < 10 µM
24 | COC(=O)C(CNC(=O)CC1CC(c2ccc(C(=N)N)cc2)=NO1)NS(=O)(=O)NCC(C)C (stereo not drawn) [Example 505] | < 10 µM
25 | COC(=O)CC(CNS(=O)(=O)N(C)C)NC(=O)CC1CC(c2ccc(C(=N)N)cc2)=NO1 (stereo not drawn) [Example 611] | < 10 µM
26 | N=C(N)NCCC1CC(C(=O)NCC(NC(=O)OCc2ccccc2)C(=O)O)=NO1 (stereo not drawn) [Example 1525] | < 10 µM
27 | Cc1ccccc1C(=O)N[C@@H](CNC(=O)CC1CC(c2ccc(C(=N)N)cc2)=NO1)C(=O)O (stereo partly drawn) [Example 540, N^2-methylphenylcarbonyl-N^3-[3-(4-amidinophenyl)isoxazolin-5-(R,S)-ylacetyl]-(S)-2,3-diaminopropionicacid] | < 10 µM
28 | CCCCOC(=O)N[C@@H](CNC(=O)CC1CC(c2ccc(C(=N)N)cc2)=NO1)C(=O)O (stereo partly drawn) [Example 278, N^2-n-butyloxycarbonyl-N^3-[3-(4-amidinophenyl)isoxazolin-5(R, S)-ylacetyl]-L-2,3-diaminopropionic acid TFA salt] | < 10 µM
29 | COC(=O)C(CNC(=O)CC1CC(c2ccc(C(=N)N)cc2)=NO1)NC(=O)c1ccc2ccccc2c1 (stereo not drawn) [Example 524] | < 10 µM
30 | COC(=O)C(CNC(=O)CC1CC(c2ccc(C(=N)N)cc2)=NO1)NS(=O)(=O)c1ccc(C(F)(F)F)cc1 (stereo not drawn) [Example 481] | < 10 µM
31 | COC(=O)C(CNC(=O)CC1CC(c2ccc(C(=N)N)cc2)=NO1)NS(=O)(=O)c1ccc(Br)cc1 (stereo not drawn) [Example 545] | < 10 µM
32 | COC(=O)C(CNC(=O)CC1CC(c2ccc(C(=N)N)cc2)=NO1)NS(=O)(=O)c1ccccc1 (stereo not drawn) [Example 326] | < 10 µM
33 | CCc1ccc(S(=O)(=O)NC(CNC(=O)CC2CC(c3ccc(C(=N)N)cc3)=NO2)C(=O)OC)cc1 (stereo not drawn) [Example 488] | < 10 µM
34 | COC(=O)C(CNC(=O)CC1CC(c2ccc(C(=N)N)cc2)=NO1)NS(=O)(=O)NC(C)C (stereo not drawn) [Example 507] | < 10 µM
35 | COC(=O)C(CNC(=O)CC1CC(c2ccc(C(=N)N)cc2)=NO1)NS(=O)(=O)NC1CCCCC1 (stereo not drawn) [Example 508] | < 10 µM
36 | COC(=O)CC(NC(=O)CC1CC(c2ccc(C(=N)N)cc2)=NO1)C(=O)N1CCN(Cc2ccccc2)CC1 (stereo not drawn) [Example 455] | < 10 µM
37 | CCCCOC(=O)NC(CNC(=O)Cc1cc(-c2ccc(C(=N)N)cc2)no1)C(=O)OC (stereo not drawn) [Example 729] | < 10 µM
38 | CCCCOc1ccc(S(=O)(=O)NC(CNC(=O)CC2CC(c3ccc(C(=N)N)cc3)=NO2)C(=O)OC)cc1 (stereo not drawn) [Example 471] | < 10 µM
39 | CCCCOC(=O)NC(CNC(=O)CC1CC(c2ccc(C(=N)N)cc2F)=NO1)C(=O)OC (stereo not drawn) [Example 613] | < 10 µM
40 | COC(=O)C(CNC(=O)CC1CC(c2ccc(C(=N)N)cc2)=NO1)NS(=O)(=O)c1sccc1Br (stereo not drawn) [Example 548] | < 10 µM
41 | COC(=O)CC(CCCc1ccccc1)NC(=O)CC1CC(c2ccc(C(=N)N)cc2)=NO1 (stereo not drawn) [Example 446] | < 10 µM
42 | N=C(N)NCCCCC1=NOC(CC(=O)NCC(NC(=O)OCc2ccccc2)C(=O)O)C1 (stereo not drawn) [Example 1731] | < 10 µM

same assay, conditions: Platelet, without esterase, given as a bound, not a class symbol, read-out: Platelet Aggregation Assay IC50 (without esterase)

Row | Compound | IC50
43 | O=C(O)CCN1C(=O)CC2(CC(CCC3CCNCC3)=NO2)C1=O (racemic) [Example 189, 5(R,S)-(2-Piperidin-4-ylethyl-8-(2-carboxyethyl)-1-oxa-2,8-diazaspiro[4.4]non-2-ene-7,9-dione] | > 100 µM
44 | O=C(O)CC1CC(c2ccc(OCC3CCNCC3)cc2)=NO1 (racemic) [Example 7, 3-[4-(Piperidin-4-ylmethoxy)phenyl]-(5R,S)-isoxazolin-5-ylacetic Acid, Trifluoroacetic Acid Salt] | > 100 µM
45 | COC(=O)C1(CC(=O)O)CC(c2ccc(OCCC3CCNCC3)cc2)=NO1 (racemic) [Example 33, Trifluoroacetic Acid Salt] | > 100 µM

same assay, conditions: Platelet, without esterase, read-out: Platelet Aggregation Assay IC50 (without esterase)

Row | Compound | IC50
46 | O=C(O)CC1CC(c2ccc(OCCC3CCNCC3)cc2)=NO1 (racemic) [Example 1, 3-(4-[2-Piperidin-4-yl)ethoxy]phenyl]-(5R,S)-isoxazolin-5-ylacetic Acid, Trifluoroacetic Acid Salt] | < 10 µM
47 | CC(C)COC(=O)NC(CNC(=O)CC1CC(c2ccc(C(=N)N)cc2)=NO1)C(=O)O (stereo not drawn) [Example 532] | < 10 µM
48 | Cc1cccc(S(=O)(=O)N[C@@H](CNC(=O)CC2CC(c3ccc(C(=N)N)cc3)=NO2)C(=O)O)c1 (stereo partly drawn) [Example 587A, N^2-3-methylphenylsulfonyl-N^3-[3-(4-amidinophenyl)isoxazolin-5S-ylacetyl]-S-2,3-diaminopropionic acid] | < 10 µM
49 | O=C(O)CCCN1C(=O)CC2(CC(CCCC3CCNCC3)=NO2)C1=O (stereo not drawn) [Example 373] | 10 to 50 µM
50 | N=C(N)c1ccc(C2=NOC(CC(=O)NCC(NC(=O)OCCC3CC3)C(=O)O)C2)cc1 (stereo not drawn) [Example 534] | < 10 µM

same assay, conditions: preincubated with 100 IU/mL porcine liver esterase 2 hours at 37° C., 100 μM ADP, read-out: Platelet Aggregation Assay IC50 (with esterase)

Row | Compound | IC50
51 | COC(=O)[C@H](CNC(=O)CC1CC(c2ccc(C(=N)N)cc2)=NO1)NC(=O)Nc1ccccc1 (stereo partly drawn) [Example 517] | < 10 µM
